Source: publication PMC10539439 (Pharmacological Reports, 2023)
“And” between values parts separate entries of the source, which are not always exact repeats. Equal values may be shown once.

How the values were obtained:
[1] = Obesity induced with a high-fat diet: body weight; format: in vivo, rat; conditions: for effect on body weight (in words): vs obese control; for body weight of rat in g in particular day / change of body weight: hight-fat diet; for change of body weight: individual rats
Method: The experiments were carried out on male Wistar rats ([…]). Initial body weight was: 140–160 g obesity model or 190–220 g rats in which the obesity model was not induced. The animals were housed in pairs in plastic cages in constant temperature facilities exposed to a light–dark cycle; water and food were available ad libitum. The control and experimental groups consisted of six-to-eight animals each. All experiments were carried out according to the guidelines of the Jagiellonian University Animal Use and Care Committee and were approved for realization (Permissions No. 54/2012 and No. 128/2017).
Male Wistar rats were housed in pairs and fed a high-fat diet consisting of a 40% fat blend (Labofeed B with 40% lard, Morawski, Manufacturer Feed, Poland) for 14 weeks, with water available ad libitum. Control rats were fed a standard diet (Labofeed B, Morawski Manufacturer Feed, Poland). After 10 weeks, rats with obesity-induced via their diet were randomly divided into three equal groups that had the same mean body weight and were treated ip with test compounds at doses of 2 or 5 mg/kg b.w./day (high-fat diet + 4OHGuanabenz) or control group: vehicle–water 0.3 ml/kg (high-fat diet + vehicle = obesity control group) once a day in the morning between 9:00 AM and 10:00 AM for 25 days. Control rats were maintained on a standard diet, with ip administration of vehicle – water (standard diet + vehicle = control group).
The high-fat diet contained 550 kcal and the standard diet 280 kcal per 100 g.

[2] = Core body temperature of obese rats (implanted logger); format: in vivo, rat; conditions: hight-fat diet, 5mg/kg, individual rats 1-6
Method: Animals with induced obesity (two more groups) were subcutaneously implanted with a DST micro-HRT heart rate logger (Star-Oddi, Island), which simultaneously measured long-term core temperature. Under general anesthesia (thiopental, 70 mg/kg, ip), the loggers were inserted under the skin in the groin area and sutured with a surgical thread. Forty-eight hours later, the baseline temperature was measured, and at 9:30 AM, 4-OH-Guanabenz was administered ip at a dose of 5 mg/kg b.w. The first measurement was recorded 30 min after the administration of the test compound, and then, the temperature was recorded every hour. After 24 h, the loggers were removed, the temperature data were read, and Mercury software (Star-Oddi Mercury Data Logger PC Software, Iceland) was used to collect and analyze the information obtained. Using this technology, measurements are made without the direct intervention of the researcher; therefore, there is no disturbance in the readings evoked by stress in the animals.

With `Cl.N=C(N)NN=Cc1c(Cl)cc(O)cc1Cl` [4-OH-Guanabenz, 2-[(2,6-Dichloro-4-hydroxyphenyl)methylene]hydrazinecarboximidamide Hydrochloride] as the molecule, how does the “effect on body weight (in words)” value ([1]; high-fat diet rats, 2 mg/kg b.w. ip, 25 days) read?
Its value is “did not cause weight loss, but significantly reduced weight gain”.

And the “weight loss compared to the baseline weight before treatment” value ([1]; high-fat diet rats, 5 mg/kg b.w. ip once a day, 25 days)?
Its value is “approximately 14.8%”.

What about the “effect on body weight (in words)” value ([1]; high-fat diet rats, 5 mg/kg b.w. ip, 25 days) of the same molecule?
The value was “significant decrease in body weight”.

And the “body weight of rat in g in particular day” value (“body weight of rat in g” for short) ([1]; 2mg/kg, day 1, individual rats, 2 mg/kg)?
Its value is 405 g (3×) and 415 g and 410 g (2×).

And the “body weight of rat in g” value ([1]; 2mg/kg, day 3, individual rats, 2 mg/kg)?
The value was 405 g (2×) and 410 g and 414 g (2×) and 406 g.

And the “body weight of rat in g” value ([1]; 2mg/kg, day 5, individual rats, 2 mg/kg)?
Its value is 409 g (2×) and 411 g and 413 g (2×) and 415 g.

And the “body weight of rat in g” value ([1]; 2mg/kg, day 7, individual rats, 2 mg/kg)?
The value was 408 g (2×) and 414 g and 412 g (2×) and 416 g.

What about the “body weight of rat in g” value ([1]; 2mg/kg, day 9, individual rats, 2 mg/kg) of the same molecule?
The value was 406 g (2×) and 414 g and 415 g (2×) and 422 g.

And the “body weight of rat in g” value ([1]; 2mg/kg, day 11, individual rats, 2 mg/kg)?
Its value is 412 g (2×) and 413 g and 417 g (2×) and 423 g.

And the “body weight of rat in g” value ([1]; 2mg/kg, day 13, individual rats, 2 mg/kg)?
Its value is 409 g (2×) and 418 g and 414 g (2×) and 425 g.

And the “body weight of rat in g” value ([1]; 2mg/kg, day 15, individual rats, 2 mg/kg)?
Its value is 410 g (2×) and 422 g and 401 g (2×) and 428 g.

And the “body weight of rat in g” value ([1]; 2mg/kg, day 17, individual rats, 2 mg/kg)?
The value was 412 g (2×) and 422 g and 403 g (2×) and 430 g.

And the “body weight of rat in g” value ([1]; 2mg/kg, day 19, individual rats, 2 mg/kg)?
Its value is 412 g (2×) and 424 g and 407 g (2×) and 433 g.

What about the “body weight of rat in g” value ([1]; 2mg/kg, day 21, individual rats, 2 mg/kg) of the same molecule?
Its value is 415 g (2×) and 429 g and 412 g (2×) and 434 g.

What about the “body weight of rat in g” value ([1]; 2mg/kg, day 23, individual rats, 2 mg/kg) of the same molecule?
Its value is 408 g (2×) and 434 g and 415 g (2×) and 435 g.

And the “body weight of rat in g” value ([1]; 2mg/kg, day 25, individual rats, 2 mg/kg)?
Its value is 405 g (2×) and 432 g and 415 g (2×) and 439 g.

And the “change of body weight” value ([1]; 2mg/kg)?
Its value is 34 g/25days and 5 g/25days and 0 g/25days and 17 g/25days.

And the “body weight of rat in g” value ([1]; 5mg/kg, day 1, individual rats, 5 mg/kg)?
Its value is 378 g and 415 g and 418 g and 409 g and 381 g and 457 g.

What about the “body weight of rat in g” value ([1]; 5mg/kg, day 3, individual rats, 5 mg/kg) of the same molecule?
The value was 367 g and 412 g and 410 g and 387 g and 366 g and 443 g.

And the “body weight of rat in g” value ([1]; 5mg/kg, day 5, individual rats, 5 mg/kg)?
Its value is 358 g and 396 g and 405 g and 374 g and 360 g and 427 g.

And the “body weight of rat in g” value ([1]; 5mg/kg, day 7, individual rats, 5 mg/kg)?
The value was 344 g and 387 g and 385 g and 364 g and 347 g and 411 g.

And the “body weight of rat in g” value ([1]; 5mg/kg, day 9, individual rats, 5 mg/kg)?
The value was 339 g and 377 g and 376 g and 357 g and 340 g and 394 g.

And the “body weight of rat in g” value ([1]; 5mg/kg, day 11, individual rats, 5 mg/kg)?
The value was 335 g and 372 g and 373 g and 350 g and 340 g and 388 g.

And the “body weight of rat in g” value ([1]; 5mg/kg, day 13, individual rats, 5 mg/kg)?
Its value is 326 g and 364 g and 373 g and 348 g and 336 g and 386 g.

And the “body weight of rat in g” value ([1]; 5mg/kg, day 15, individual rats, 5 mg/kg)?
Its value is 327 g and 363 g and 377 g and 350 g and 334 g and 384 g.

What about the “body weight of rat in g” value ([1]; 5mg/kg, day 17, individual rats, 5 mg/kg) of the same molecule?
The value was 326 g and 362 g and 384 g and 348 g and 331 g and 386 g.

What about the “body weight of rat in g” value ([1]; 5mg/kg, day 19, individual rats, 5 mg/kg) of the same molecule?
Its value is 327 g and 356 g and 377 g (2×) and 349 g and 333 g.

What about the “body weight of rat in g” value ([1]; 5mg/kg, day 21, individual rats, 5 mg/kg) of the same molecule?
The value was 314 g and 353 g and 370 g and 334 g and 328 g and 367 g.

And the “body weight of rat in g” value ([1]; 5mg/kg, day 23, individual rats, 5 mg/kg)?
The value was 310 g and 355 g and 373 g and 342 g and 328 g and 365 g.

What about the “body weight of rat in g” value ([1]; 5mg/kg, day 25, individual rats, 5 mg/kg) of the same molecule?
Its value is 315 g and 357 g and 378 g and 348 g and 325 g and 370 g.

And the “change of body weight” value ([1]; 5mg/kg)?
The value was -56 g/25days and -87 g/25days and -63 g/25days and -58 g/25days and -40 g/25days and -61 g/25days.

And the temperature after administration ([2]; hour 1)?
Its temperature after administration is 37.56 ⚬C and 36.75 ⚬C and 37.32 ⚬C and 36.19 ⚬C and 36.67 ⚬C and 36.9 ⚬C.

And the temperature after administration ([2]; hour 2)?
The temperature after administration was 36.89 ⚬C and 36.98 ⚬C and 36.3 ⚬C (2×) and 37.12 ⚬C and 35.67 ⚬C.

And the temperature after administration ([2]; hour 3)?
Its temperature after administration is 36.21 ⚬C and 36.64 ⚬C and 36.08 ⚬C and 35.74 ⚬C and 36.23 ⚬C and 35.01 ⚬C.

And the temperature after administration ([2]; hour 4)?
The temperature after administration was 36.66 ⚬C and 36.98 ⚬C and 36.64 ⚬C and 35.41 ⚬C and 35.89 ⚬C and 36.48 ⚬C.

And the temperature after administration ([2]; hour 5)?
Its temperature after administration is 37 ⚬C and 36.98 ⚬C and 36.95 ⚬C and 36.08 ⚬C and 36.45 ⚬C and 36.9 ⚬C.

And the temperature after administration ([2]; hour 6)?
Its temperature after administration is 37.34 ⚬C and 36.75 ⚬C and 36.87 ⚬C and 36.44 ⚬C and 36.59 ⚬C and 36.9 ⚬C.

What about the temperature after administration ([2]; hour 7) of the same molecule?
Its temperature after administration is 36.77 ⚬C and 36.64 ⚬C (2×) and 36.19 ⚬C and 36.78 ⚬C and 36.45 ⚬C.
